What all share (format): cell-based
Data set [1] deals with pLai RLuc reporter virus. In words: HIV MT-4 serum shift antiviral reporter assay. An outline of the steps:
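MT-4 cells pre-infected with pLai RLuc virus for 2 h at 37 °C, then incubated 72 h at 37 °C with compound in medium (RPMI, 10% FBS) with or without 50% human serum; Renilla luminescence read. EC50 from sigmoidal fit; serum shift = EC50(HS/CCM)/EC50(CCM).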
In general terms: A reporter such as luciferase makes a cellular process visible.

In data set [2] the test system is HIV-1 (IIIB). Nature of the data set: Antiviral assay in MT-4 cells. As to conditions: HIV-1 IIIB infected MT-4 cells, 5 days, Cell Titer Glo, read-out: MT4 EC50. The procedure, abridged:
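MT-4 cells infected with a 1:250 dilution of HIV-1 IIIB stock were incubated with serially diluted (1:3) compound for 5 days at 37 °C. Viability read by Cell Titer Glo luminescence; EC50 is the concentration giving 50% decrease in signal, from sigmoidal dose-response fits.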

Data set [3] has as its system MT-4 cells. In words: Cytotoxicity assay in MT-4 cells. The procedure, abridged:
(§1)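 Uninfected MT-4 cells were incubated with 1:3 serially diluted compound in RPMI/10% FBS for 5 days at 37° C. Viability was read by CellTiter-Glo luminescence, with 10 μM puromycin as the baseline cytotoxicity control. Values are the concentration giving a 50% decrease in luminescence, from sigmoidal dose-response fits.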

The nature of data set [4]: Cytotoxicity assay in MT-4 cells. Conditions: human, uninfected MT-4 cells, 5 days, Cell Titer Glo; read-out: CC50. The procedure, abridged: as §1
A general note: ATP-based viability assays read luminescence as a measure of living cells.

The mark [5] stands for this setting: HS/CCM: 50% human serum, 72 h, Renilla Glo, read-out: RLUC 50% HS.
Setting [6] is: cell culture media (RPMI, 10% FBS), 72 h, Renilla Glo, read-out: RLUC CCM.
Where [7] appears, read: uninfected MT-4 cells, 5 days, Cell Titer Glo, read-out: CC50.
Setting [8] is: Human immunodeficiency virus 1, 72 h, read-out: RLUC CCM (nM), cell culture media (RPMI, 10% FBS), 72 h, Renilla Glo.
The mark [9] stands for this setting: read-out: RLUC 50% HS, HS/CCM: 50% human serum, 72 h, Renilla Glo.
Setting [10] is: Human immunodeficiency virus 1, IIIB, MT4, 120 h.
Where [11] appears, read: Human immunodeficiency virus 1, 72 h, read-out: RLUC 50% HS (nM), HS/CCM: 50% human serum, 72 h, Renilla Glo.

The term CC50 denotes the concentration giving 50% cytotoxicity.

Where two headings read alike, the source gives them in different places.

As for `C[C@H]1C=CC(C)(C)N2CN1n1cc(C(=O)NCc3ccc(F)cc3F)c(=O)c(O)c1C2=O` [Example C91, (1R,2S)—N-(2,4-difluorobenzyl)-8-hydroxy-2,5,5-trimethyl-7,9-dioxo-2,5,7,9-tetrahydro-1,6-methanopyrido[1,2-b][1,2,5]triazonine-10-carboxamide], the EC50 was 195 nM in data set [1] (setting [5]), 0.67 nM in data set [1] (setting [6]) and 1.9 nM in data set [2]. The CC50 in data set [3] (setting [7]) stood at 31000 nM.

`C[C@@H]1CC[C@H](CF)N2CN1n1cc(C(=O)NCc3ccc(F)cc3F)c(=O)c(O)c1C2=O` [Example C49b, (1S,10R,13R)—N-[(2,4-difluorophenyl)methyl]-10-(fluoromethyl)-6-hydroxy-13-methyl-5,8-dioxo-1,2,9-triazatricyclo[7.4.1.02,7]tetradeca-3,6-diene-4-carboxamide]: the EC50 is 462 nM in data set [1] (setting [5]), 1 nM in data set [1] (setting [6]) and 1.9 nM in data set [2]. Also, the CC50 in data set [3] (setting [7]) stood at 8930 nM.

`C[C@@H]1[C@H]2C[C@H]2[C@H](C)N2CN1n1cc(C(=O)NCc3c(F)cc(F)cc3F)c(=O)c(O)c1C2=O` [Example C89, (1aS,2R,3R,11S,11aR)-8-hydroxy-2,11-dimethyl-7,9-dioxo-N-(2,4,6-trifluorobenzyl)-1a,2,7,9,11,11a-hexahydro-1H-3,10-methanocyclopropa[g]pyrido[1,2-b][1,2,5]triazonine-6-carboxamide]: the EC50 in data set [1] (setting [5]) was 36.5 nM; in data set [1] (setting [6]), 1.09 nM; in data set [2], 1.1 nM. For the same compound, the CC50 in data set [3] (setting [7]) came to 37200 nM.

As to `C[C@@H]1C=C[C@@H](C)N2CN1C(=O)c1c(O)c(=O)c(C(=O)NCc3ccc(F)cc3F)cn12` [Example C68, (1R,2R,5R)—N-(2,4-difluorobenzyl)-8-hydroxy-2,5-dimethyl-7,9-dioxo-2,5,7,9-tetrahydro-1,6-methanopyrido[1,2-b][1,2,5]triazonine-10-carboxamide], the EC50 in data set [1] (setting [8]) worked out at 0.82 nM; in data set [1] (setting [9]), 291 nM; in data set [2] (setting [10]) it was 1.6 nM. The CC50 in data set [3] (setting [7]) worked out at 17300 nM.

`C[C@@H]1C=C[C@H](CF)N2CN1n1cc(C(=O)NCc3ccc(F)cc3F)c(=O)c(O)c1C2=O` [Example C49a, (1S,10R,13R)—N-[(2,4-difluorophenyl)methyl]-10-(fluoromethyl)-6-hydroxy-13-methyl-5,8-dioxo-1,2,9-triazatricyclo[7.4.1.02,7]tetradeca-3,6,11-triene-4-carboxamide]: the EC50 is 140 nM in data set [1] (setting [5]), 0.64 nM in data set [1] (setting [6]) and 1.2 nM in data set [2]. The CC50 in data set [3] (setting [7]) came to 11300 nM.

For `C[C@@H]1C=C[C@@H](C)N2CN1C(=O)c1c(O)c(=O)c(C(=O)NCc3ccc(F)cc3F)cn12` [Example C69, (1S,2R,5R)—N-(2,4-difluorobenzyl)-8-hydroxy-2,5-dimethyl-7,9-dioxo-2,5,7,9-tetrahydro-1,6-methanopyrido[1,2-b][1,2,5]triazonine-10-carboxamide], the EC50 was found to be 146 nM in data set [1] (setting [9]); 0.55 nM in data set [1] (read-out: RLUC CCM, cell culture media (RPMI, 10% FBS), 72 h, Renilla Glo); 1.5 nM in data set [2]. The CC50 in data set [3] (setting [7]) stood at 38900 nM.

In the case of `C[C@H]1C=C[C@@]2(CCOC2)N2CN1C(=O)c1c(O)c(=O)c(C(=O)NCc3c(F)cc(F)cc3F)cn12` [Example C85, (1′S,3R,5′S)-8′-hydroxy-5′-methyl-7′,9′-dioxo-N-(2,4,6-trifluorobenzyl)-4,5,7′,9′-tetrahydro-2H,5′H-spiro[furan-3,2′-[1,6]methanopyrido[1,2-b][1,2,5]triazonine]-10′-carboxamide], the CC50 in data set [3] (setting [7]) turned out to be 29000 nM.

For the compound `C[C@@H]1[C@H]2C[C@H]2[C@H](C)N2CN1n1cc(C(=O)NCc3c(F)cc(F)cc3F)c(=O)c(O)c1C2=O` [Example C88, (1aS,2R,3S,11S,11aR)-8-hydroxy-2,11-dimethyl-7,9-dioxo-N-(2,4,6-trifluorobenzyl)-1a,2,7,9,11,11a-hexahydro-1H-3,10-methanocyclopropa[g]pyrido[1,2-b][1,2,5]triazonine-6-carboxamide], the EC50 in data set [2] came out at 1.1 nM. Also, the CC50 in data set [3] (setting [7]) came to 34300 nM.

Turning to `C[C@H]1/C=C\C[C@H](C)N2CN1C(=O)c1c(O)c(=O)c(C(=O)NCc3c(F)cc(F)cc3F)cn12` [Example C20, (1S,2S,6S,Z)-9-hydroxy-2,6-dimethyl-8,10-dioxo-N-(2,4,6-trifluorobenzyl)-3,6,8,10-tetrahydro-2H-1,7-methanopyrido[1,2-b][1,2,5]triazecine-11-carboxamide], the EC50 in data set [2] is 3.5 nM. Moreover, the CC50 in data set [3] (setting [7]) is 16600 nM.

Consider `C[C@@H]1CCCCN2CN1n1cc(C(=O)NCc3ccc(F)cc3F)c(=O)c(O)c1C2=O` [Example C15, (1R,2R)—N-(2,4-difluorobenzyl)-9-hydroxy-2-methyl-8,10-dioxo-3,4,5,6,8,10-hexahydro-2H-1,7-methanopyrido[1,2-b][1,2,5]triazecine-11-carboxamide], for which the EC50 in data set [2] was 1.9 nM. Further, the CC50 in data set [3] (setting [7]) stood at 9970 nM.

In the case of `C[C@@H]1/C=C\C[C@@H](C)N2CN1C(=O)c1c(O)c(=O)c(C(=O)NCc3c(F)cc(F)cc3F)cn12` [Example C18, (1S,2R,6R,Z)-9-hydroxy-2,6-dimethyl-8,10-dioxo-N-(2,4,6-trifluorobenzyl)-3,6,8,10-tetrahydro-2H-1,7-methanopyrido[1,2-b][1,2,5]triazecine-11-carboxamide], the EC50 in data set [2] was found to be 4.3 nM. Also, in data set [3], half-maximal cytotoxicity (CC50) was put at 13400 nM.

As to `C[C@@H]1C(F)=C[C@H](C)N2CN1n1cc(C(=O)NCc3c(F)cc(F)cc3F)c(=O)c(O)c1C2=O` [Example C36, (1S,2R,5S)-3-fluoro-8-hydroxy-2,5-dimethyl-7,9-dioxo-N-(2,4,6-trifluorobenzyl)-2,5,7,9-tetrahydro-1,6-methanopyrido[1,2-b][1,2,5]triazonine-10-carboxamide], in data set [2], the EC50 turned out to be 1.6 nM. In addition, the CC50 in data set [3] (setting [7]) is 16600 nM.

For “(1S,2R,5S)—N-(2,4-difluorobenzyl)-8-hydroxy-2,3,5-trimethyl-7,9-dioxo-2,5,7,9-tetrahydro-1,6-methanopyrido[1,2-b][1,2,5]triazonine-10-carboxamide [Example C62]”, the EC50 in data set [2] is 1.4 nM. The compound further registered a CC50 in data set [3] of 50000 nM.

Regarding `C[C@@H]1N2CN([C@@H](C)CC1(F)F)n1cc(C(=O)NCc3ccc(F)cc3F)c(=O)c(O)c1C2=O` [Example C59, (1S,2S,5S)—N-(2,4-difluorobenzyl)-4,4-difluoro-8-hydroxy-2,5-dimethyl-7,9-dioxo-2,3,4,5,7,9-hexahydro-1,6-methanopyrido[1,2-b][1,2,5]triazonine-10-carboxamide], the EC50 in data set [2] (setting [10]) was found to be 2.8 nM. Also, the CC50 in data set [3] (setting [7]) is 50000 nM.

For the compound `C[C@H]1C=CC(C)(C)N2CN1C(=O)c1c(O)c(=O)c(C(=O)NCc3c(F)cc(F)cc3F)cn12` [Example C48, (1S,5S)-8-hydroxy-2,2,5-trimethyl-7,9-dioxo-N-(2,4,6-trifluorobenzyl)-2,5,7,9-tetrahydro-1,6-methanopyrido[1,2-b][1,2,5]triazonine-10-carboxamide], the EC50 in data set [2] is 1.5 nM. Besides, the CC50 in data set [3] (setting [7]) came out at 50000 nM.

Consider `C[C@@H]1C=C(F)[C@H](C)N2CN1n1cc(C(=O)NCc3c(F)cc(F)cc3F)c(=O)c(O)c1C2=O` [Example C55, (1S,2R,5S)-4-fluoro-8-hydroxy-2,5-dimethyl-7,9-dioxo-N-(2,4,6-trifluorobenzyl)-2,5,7,9-tetrahydro-1,6-methanopyrido[1,2-b][1,2,5]triazonine-10-carboxamide], for which the values for the EC50 in data set [1] (setting [11]), in data set [1] (setting [8]) and in data set [2] (setting [10]) were 515 nM, 0.71 nM and 1.3 nM, respectively. Also, in data set [4], the CC50 at 5 days came out at 29500 nM.

Regarding `O=C(NCc1c(F)cc(F)cc1F)c1cn2c(c(O)c1=O)C(=O)N1CCCCN2C1Cc1ccccc1` (centres unmarked) [Example C6, 13-benzyl-8-hydroxy-7,9-dioxo-N-(2,4,6-trifluorobenzyl)-2,3,4,5,7,9-hexahydro-1,6-methanopyrido[1,2-b][1,2,5]triazonine-10-carboxamide], the EC50 stood at 23.1 nM in data set [1] (setting [11]), 3.5 nM in data set [1] (setting [8]) and 7.5 nM in data set [2] (setting [10]). The CC50 at 5 days in data set [4] was 9880 nM.

As for `COC[C@@H]1CC[C@H](C)N2CN1n1cc(C(=O)NCc3ccc(F)cc3F)c(=O)c(O)c1C2=O` [Example C83, (1S,2S,5S)—N-(2,4-difluorobenzyl)-8-hydroxy-2-(methoxymethyl)-5-methyl-7,9-dioxo-2,3,4,5,7,9-hexahydro-1,6-methanopyrido[1,2-b][1,2,5]triazonine-10-carboxamide], the EC50 in data set [1] (setting [11]) amounted to 261 nM; in data set [1] (setting [8]), 1.97 nM; in data set [2] (setting [10]), 3.6 nM. In addition, the CC50 at 5 days in data set [4] stood at 30500 nM.

The record behind these values is US11613546B2, “Substituted pyridotriazine compounds and uses thereof” (Gilead Sciences, Inc., priority 2021, dated 2023).
